Laboratory results taken from patent publication US5200412A, “Heterobicyclic containing benzene sulfonamides which are platelet activating factor antagonists” (British Bio-Technology Limited, priority 1990, dated 1993).

Legend:
PAF receptor = molecular target: T1, PAF receptor (Homo sapiens, UniProt P25105); assay: inhibition of 3H-PAF binding to human platelet plasma membrane; settings: human platelet membranes, 0.5 nM 3H-PAF, 1 hour incubation at 0° C., pH 7.0
T1 construct: Platelet concentrates were obtained from a hospital blood bank; from tissue; host or cells: human platelets (hospital blood bank concentrates), lysed platelet membrane fraction
T1 sequence (P25105 whole entry): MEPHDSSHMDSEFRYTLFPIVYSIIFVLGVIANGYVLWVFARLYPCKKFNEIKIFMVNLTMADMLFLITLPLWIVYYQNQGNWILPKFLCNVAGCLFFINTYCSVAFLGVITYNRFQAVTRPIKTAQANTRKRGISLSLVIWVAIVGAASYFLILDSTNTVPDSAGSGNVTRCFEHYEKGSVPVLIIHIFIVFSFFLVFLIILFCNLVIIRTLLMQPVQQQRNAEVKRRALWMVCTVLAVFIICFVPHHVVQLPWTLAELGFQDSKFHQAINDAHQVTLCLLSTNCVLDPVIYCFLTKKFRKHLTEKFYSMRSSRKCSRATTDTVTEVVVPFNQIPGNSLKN
Procedure: (§1) Compounds of general formula I inhibit PAF-induced functions in both the cellular and tissue levels by changing the PAF binding to its specific receptor site. The ability of compounds of general formula I to inhibit the binding of PAF to its specific receptor binding site on human platelet plasma membranes was measured according to Pharmacological Example 1. The ability of compounds of general formula I to reverse the hypotension caused by an infusion of PAF in rats was measured according to Pharmacology Example 2.
The inhibition of 3H-PAF binding to human platelet plasma membrane by compounds of general formula I was determined by isotopic labelling and filtration techniques. Platelet concentrates were obtained from a hospital blood bank. These platelet concentrates (500-2500 ml.) were centrifuged at 800 rpm for 10 minutes in a SORVALL RC3B centrifuge to remove the red blood cells present. (The word SORVALL is a trade mark ) The supernatant was subsequently centrifuged at 3,000 rpm in a SORVALL RC3B centrifuge to pellet the platelets present. The platelet rich pellets were resuspended in a minimum volume of buffer (150 mM NaCl, 10 mM Tris, 2 mM EDTA, pH 7.5) and layered onto Ficoll-Paque gradients, 9 ml platelet concentrate to 2 ml Ficoll, and centrifuged at 1,900 rpm for 15 minutes in a SORVALL RT6000 centrifuge. This step removes the residual red blood cells and other nonspecific material such as lymphocytes from the preparation. The platelets which form a band between the plasma and the Ficoll were removed, resuspended in the above buffer and centrifuged at 3,000 rpm for 10 minutes in a SORVALL RT6000 centrifuge. The pelleted platelets were resuspended in buffer (10 mM Tris, 5 mM MgCl2, 2 mM EDTA, pH 7.0), snap freezed in liquid N2 and allowed to thaw slowly at room temperature in order to lyse the platelets. The latter step was repeated at least 3 times to ensure proper lysis. The lysed platelets were centrifuged at 3,000 rpm for 10 minutes in a SORVALL RT6000 centrifuge and resuspended in buffer. The latter step was repeated twice in order to remove any cytoplasmic proteins which may hydrolyse the platelet activating factor (PAF) receptor The prepared platelet membranes may be stored at -70° C. After thawing the prepared membranes were centrifuged in a SORVALL RT6000 at 3,000 rpm for 10 minutes and resuspended in assay buffer.
The assay was conducted by preparing a series of Tris-buffered solutions of the selected antagonist of predetermined concentrations. Each of these solutions contained ^3 H-PAF (0.5 nM; 1-O-[^3 H]octadecyl-2-acetyl-sn-glycero-3-phosphoryl choline with a specific activity of 132 Ci/mmol), […], a known amount of the test antagonist, and a sufficient amount of Tris-buffer solution (10 mM Tris, 5 mM MgCl2, pH 7.0, 0.25% BSA) to make the final volume 1 ml. Incubation was initiated by the addition of 100 μg of the isolated membrane fraction to each of the above solutions at 0° C. Two control samples, one (Cl) which contained all the ingredients described above except the antagonist and the other (C2) contains Cl plus a 1000-fold excess of unlabelled PAF, were also prepared and incubated simultaneously with the test samples. After 1 hour incubation, each solution was filtered rapidly under vacuo through a WHATMAN GF/C glass fibre filter in order to separate unbound PAF from bound PAF. (The word WHATMAN is a trade mark.) The residue in each case was rapidly washed 4 times with 5 ml cold (4° C.) Tris-buffer solution. Each washed residue was dried under vacuum on a sampling manifold and placed into vials containing 20 ml of OPTIPHASE MP scintillation fluid and the radioactivity counted in a liquid scintillation counter. […]

[1] = system: endotoxin induced hypotension; assay: reversal of endotoxin induced hypotension in the rat; format: in vivo; settings: iv, read-out: ED50 (50% reversal of the endotoxin induced hypotension)
Procedure: Rats were anaesthetised with a mixture of sodium pentobarbitone, 22.5 mg/kg, and thiopental, 62.5 mg/kg. The animals breathed spontaneously, air enriched with oxygen, and a carotid artery was cannulated for the measurement of blood pressure and heart rate. […] Test compounds were administered i.v. via the other jugular vein as a bolus.

PAF-induced hypotension = assay: reversal of PAF-induced hypotension in the rat; format: in vivo, Male Sprague-Dawley rats; settings: iv, anaesthetised rats, i.v. bolus, PAF 100 ng/kg/min i.v. infusion, read-out: ED50 (50% reversal of the hypotensive PAF response)
Procedure: as §1
Male Sprague-Dawley rats (300-350 g) were anaesthetised with a mixture of sodium pentobarbitone, 22.5 mg/kg and thiopental 62.5 mg/kg. Through a midline incision in the neck, the trachea was cannulated and the animals, breathed spontaneously. A carotid artery was cannulated for the measurement of blood pressure and this signal was used to trigger a rate meter to measure heart rate. Both jugular veins were cannulated: one for the infusion of PAF and the other for the bolus administration of test compounds.
PAF, 100 ng/kg/min was infused i.v. until a sustained fall in mean blood pressure of 50 mmHg was achieved. […] Also presented in Table 2 is the result for a comparative example (N-cyclohexyl-N-methyl-4-(1H-imidazo[4,5-c]pyridylmethyl)benzamide. This compound (a PAF antagonist described in EP-A-0260613) is not within the scope of the invention.

[2] = system: PAF-induced bronchoconstriction; assay: inhibition of PAF-induced bronchoconstriction in the guinea pig; format: in vivo, Male Dunkin-Hartley guinea-pigs; settings: 10 mg/kg p.o., 1 hour before PAF 40 ng/kg/min i.v. infusion
Procedure: The inhibition of PAF induced bronchoconstriction was measured in anaesthetised artificially ventilated guinea-pigs (450-500 g) using a modified version of the Konzett-Rossler technique (Konzett M and Rossler R, Naunym-Schmiedeb. Arch. Exp. Pathol. Pharmakol., 1940, 197, 71) Male Dunkin-Hartley guinea-pigs were anaesthetised with urethane, 1.6 g/kg. Through a midline neck incision, the trachea was cannulated and the animal ventilated with a constant tidal volume set between 5 and 15 ml, to give a tracheal inflation pressure of 15 mmHg at a rate of 40 per minute. A carotid artery was cannulated for the measurement of blood pressure and heart rate and both jugular veins were cannulated, one for the infusion of PAF and the other for the administration of test compounds. PAF, 40 ng/kg/min in saline with 0.25% bovine serum albumin, was infused i.v. to produced a 100% increase in tracheal inflation pressure, and bronchoconstrictor effects were determined. Test compounds were administered p.o. (10 mg/kg) 1 hour before the infusion of PAF was started whilst the animals were conscious.

SMILES	IC50 (PAF receptor)	ED50 [1]	ED50 (PAF-induced hypotension)	% Inhibition of PAF-induced bronchoconstriction [2]
Cc1nc2cnccc2n1Cc1ccc(S(=O)(=O)N[C@@H](CC(C)C)C(=O)OCCOCc2ccccc2)cc1 [Example 43B, N-4-(1H-2methylimidazo[4,5-c]pyridylmethyl)phenylsulphonyl-L-leucine 2-benzoxyethyl ester]	1 nM	–	–	–
COC(=O)[C@H](CC(C)C)NS(=O)(=O)c1ccc(Cn2c(C)nc3cnccc32)cc1 [Example 32B, N-4-(1H-2-methylimidazo[4,5-c]pyridylmethyl)phenylsulphonyl-L-leucine methyl ester]	8 nM	15.5 µg/kg	2.1 µg/kg	–
CCCCOC(=O)[C@H](CC(C)C)N(C)S(=O)(=O)c1ccc(Cn2c(C)nc3cnccc32)cc1 [Example 57B, N-methyl-N-4-(1H-2-methylimidazo[4,5-c]pyridylmethyl)phenylsulphonyl-L-leucine n-butyl ester]	1 nM	–	–	–
CCOC(=O)[C@H](CC(C)C)N(C)S(=O)(=O)c1ccc(Cn2c(C)nc3cnccc32)cc1 [Example 53B, N-Methyl-N-4-(1H-2-methylimidazo[4,5-c]pyridylmethyl)phenylsulphonyl-L-leucine ethyl ester]	0.15 nM	–	0.5 µg/kg	91%
CCOC(=O)[C@H](CC(C)C)N(C)S(=O)(=O)c1ccc(Cn2c(C)nc3ccccc32)cc1 [Example 54, N-Methyl-N-4-(1H-2-methylbenzimidazolylmethyl)phenylsulphonyl-L-leucine ethyl ester]	3 nM	–	–	–
COC(=O)[C@H](CC(C)C)NS(=O)(=O)c1ccc(Cn2c(C)nc3ccccc32)cc1 [Example 7, N-4-(1H-2-Methylbenzimidazolylmethyl)phenylsulphonyl-L-leucine methyl ester]	20 nM	–	11.6 µg/kg	–
CCOC(=O)[C@H](CC(C)C)NS(=O)(=O)c1ccc(Cn2c(C)nc3cnccc32)cc1 [Example 35B, N-4-(1H-2-methylimidazo[4,5-c]pyridylmethyl)phenylsulphonyl-L-leucine ethyl ester]	0.2 nM	2.9 µg/kg	–	–
CC[C@H](C)[C@H](NS(=O)(=O)c1ccc(Cn2c(C)nc3ccccc32)cc1)C(=O)OC [Example 6, N-4-(1H-2-Methylbenzimidazolylmethyl)phenylsulphonyl-L-isoleucine methyl ester]	30 nM	–	–	–
CCOC(=O)[C@H](CC(C)C)NS(=O)(=O)c1ccc(Cn2c(C)nc3ccccc32)cc1 [Example 14, N-4-(1H-2-Methylbenzimidazolylmethyl)phenylsulphonyl-L-leucine ethyl ester]	15 nM	–	–	–
CCOC(=O)[C@H](CC(C)C)N(CC(=O)OC(C)(C)C)S(=O)(=O)c1ccc(Cn2c(C)nc3cnccc32)cc1 [69(B), N-t-butoxycarbonylmethyl-N-4-(1H-2-methylimidazo[4,5-c]pyridylmethyl)phenylsulphonyl-L-leucine ethyl ester]	–	–	–	60%
CN(C(=O)c1ccc(Cn2cnc3cnccc32)cc1)C1CCCCC1 [Comparative Example, N-Cyclohexyl-N-methyl-4-(1H-imidazo[4,5-c]pyridylmethyl)benzamide, reference compound]	–	–	150 µg/kg	–
CCOCCOC(=O)[C@H](CC(C)C)NS(=O)(=O)c1ccc(Cn2c(C)nc3ccncc32)cc1 [Example 42A, N-4-(3H-2-Methylimidazo[4,5-c]pyridylmethyl)phenylsulphonyl-L-leucine 2-ethoxyethyl ester]	2 nM	–	–	–
Cc1nc2cnccc2n1Cc1ccc(S(=O)(=O)N(C)[C@@H](CC(C)C)C(=O)OC(C)C)cc1 [Example 56B, N-Methyl-N-4-(1H-2-methylimidazo[4,5-c]pyridylmethyl)phenylsulphonyl-L-leucine i-propyl ester]	–	–	0.6 µg/kg	72%
C=CCN([C@@H](CC(C)C)C(=O)OCC)S(=O)(=O)c1ccc(Cn2c(C)nc3cnccc32)cc1 [60(B), N-Allyl-N-4-(1H-2-methylimidazo[4,5-c]pyridylmethyl)phenylsulphonyl-L-leucine ethyl ester]	–	–	–	60%
COC(=O)[C@H](COCc1ccccc1)NS(=O)(=O)c1ccc(Cn2c(C)nc3ccccc32)cc1 [Example 12, N-4-(1H-2-Methylbenzimidazolylmethyl)phenylsulphonyl-O-benzyl-L-serine methyl ester]	–	–	21 µg/kg	–
